According to patent US20080234262A1 (Wyeth, priority 2007, published 2008):

Target: PI3K (Homo sapiens, UniProt P42336)
Assay: Fluorescence polarization assay for PI3K;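 note: PI3K kinase reaction on PIP2 with ATP, 30-60 min, product sensed by GST-GRP with red probe in fluorescence polarization (mP), controls without enzyme and at zero time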
Assay type: biochemical
Settings: PI3Kα; read-out: PI3Kα IC50

Sequence of PI3K (P42336 whole entry): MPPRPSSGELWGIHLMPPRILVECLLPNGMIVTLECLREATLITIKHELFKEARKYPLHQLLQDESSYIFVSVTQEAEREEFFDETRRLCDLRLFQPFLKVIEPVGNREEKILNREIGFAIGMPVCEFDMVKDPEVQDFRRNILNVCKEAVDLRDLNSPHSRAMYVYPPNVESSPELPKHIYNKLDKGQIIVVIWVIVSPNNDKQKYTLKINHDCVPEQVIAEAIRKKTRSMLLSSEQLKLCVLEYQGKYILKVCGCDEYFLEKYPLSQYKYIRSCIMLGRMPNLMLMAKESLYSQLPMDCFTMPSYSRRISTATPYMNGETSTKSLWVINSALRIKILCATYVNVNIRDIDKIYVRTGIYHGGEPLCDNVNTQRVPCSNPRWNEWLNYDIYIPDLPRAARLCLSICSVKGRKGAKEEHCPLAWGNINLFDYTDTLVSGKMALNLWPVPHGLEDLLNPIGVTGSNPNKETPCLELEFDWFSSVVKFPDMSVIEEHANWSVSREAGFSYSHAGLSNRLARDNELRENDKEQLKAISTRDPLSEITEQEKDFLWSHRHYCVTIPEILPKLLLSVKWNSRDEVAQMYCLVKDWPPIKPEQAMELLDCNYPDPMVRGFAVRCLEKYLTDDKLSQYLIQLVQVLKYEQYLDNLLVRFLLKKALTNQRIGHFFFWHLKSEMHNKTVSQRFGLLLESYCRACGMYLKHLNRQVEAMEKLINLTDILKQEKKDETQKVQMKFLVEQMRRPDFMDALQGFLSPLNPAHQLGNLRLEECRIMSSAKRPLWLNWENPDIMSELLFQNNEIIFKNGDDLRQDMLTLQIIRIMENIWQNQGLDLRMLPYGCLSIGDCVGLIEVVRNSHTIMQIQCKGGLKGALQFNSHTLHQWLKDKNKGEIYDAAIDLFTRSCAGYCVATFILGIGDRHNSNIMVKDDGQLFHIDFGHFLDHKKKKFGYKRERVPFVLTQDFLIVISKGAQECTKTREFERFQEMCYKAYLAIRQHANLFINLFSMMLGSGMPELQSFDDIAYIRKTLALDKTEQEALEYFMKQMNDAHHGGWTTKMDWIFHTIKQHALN
Sequence of PI3K (P27986 whole entry partner): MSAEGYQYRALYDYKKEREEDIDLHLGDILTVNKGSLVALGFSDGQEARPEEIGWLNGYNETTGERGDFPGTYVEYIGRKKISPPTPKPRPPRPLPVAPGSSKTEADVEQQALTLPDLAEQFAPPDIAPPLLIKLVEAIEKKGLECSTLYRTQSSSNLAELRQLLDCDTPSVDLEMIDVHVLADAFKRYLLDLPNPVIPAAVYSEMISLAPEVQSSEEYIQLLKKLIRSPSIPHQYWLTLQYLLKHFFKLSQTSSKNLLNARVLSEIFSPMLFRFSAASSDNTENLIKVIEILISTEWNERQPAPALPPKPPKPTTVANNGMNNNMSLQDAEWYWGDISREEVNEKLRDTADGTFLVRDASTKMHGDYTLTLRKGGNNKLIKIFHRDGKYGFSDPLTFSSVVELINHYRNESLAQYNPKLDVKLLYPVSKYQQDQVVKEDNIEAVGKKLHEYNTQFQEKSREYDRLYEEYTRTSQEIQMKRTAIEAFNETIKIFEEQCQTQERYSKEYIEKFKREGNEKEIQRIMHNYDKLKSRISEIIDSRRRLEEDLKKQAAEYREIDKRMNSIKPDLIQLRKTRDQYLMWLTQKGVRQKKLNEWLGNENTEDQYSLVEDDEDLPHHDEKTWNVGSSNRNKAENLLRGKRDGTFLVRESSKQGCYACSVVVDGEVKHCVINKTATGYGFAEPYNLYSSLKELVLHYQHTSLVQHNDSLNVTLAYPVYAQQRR

| Structure (SMILES) | IC50 [µM] |
| --- | --- |
| Cn1ncc2c(N3CCOCC3)nc(-c3cccnc3)nc21 [Compound 1] | 0.813 |
| Cn1ncc2c(N3CCOCC3)nc(-c3ccoc3)nc21 [Compound 3] | 0.915 |
| CN(C)CCC(=O)Nc1ccc(-c2nc(N3CCOCC3)c3cnn(-c4ccccc4)c3n2)cc1 [Compound 133] | 0.223 |
| CC(=O)Nc1ccc(-c2nc(N3CCOCC3)c3cnn(C4CCCCO4)c3n2)cc1 (stereo not drawn) [Compound 224, N-{4-[4-morpholin-4-yl-1-(tetrahydro-2H-pyran-2-yl)-1H-pyrazolo[3,4-d]pyrimidin-6-yl]phenyl}acetamide] | 1.65 |
| NC(=O)Nc1cccc(-c2nc(N3CCOCC3)c3cnn(C4CCN(Cc5ccccc5)CC4)c3n2)c1 [Compound 229, N-{3-[1-(1-benzylpiperidin-4-yl)-4-morpholin-4-yl-1H-pyrazolo[3,4-d]pyrimidin-6-yl]phenyl}urea] | 2.17 |
| Nc1ccc(-c2nc(N3CCOCC3)c3cnn(C4CCCCO4)c3n2)cc1 (stereo not drawn) [Compound 264, 4-[4-morpholin-4-yl-1-(tetrahydro-2H-pyran-2-yl)-1H-pyrazolo[3,4-d]pyrimidin-6-yl]aniline] | 0.119 |
| COC(=O)Nc1ccc(-c2nc(N3CCOCC3)c3cnn(C4CCCCO4)c3n2)cc1 (stereo not drawn) [Compound 274, methyl {4-[4-morpholin-4-yl-1-(tetrahydro-2H-pyran-2-yl)-1H-pyrazolo[3,4-d]pyrimidin-6-yl]phenyl}carbamate] | 2.55 |
| COc1cccc(C(=O)Nc2ccc(-c3nc(N4CCOCC4)c4cn[nH]c4n3)cc2)c1 [Compound 277, 3-methoxy-N-[4-(4-morpholin-4-yl-1H-pyrazolo[3,4-d]pyrimidin-6-yl)phenyl]benzamide] | 0.44 |
| O=C(NCc1ccco1)Nc1ccc(-c2nc(N3CCOCC3)c3cnn(C4CCN(Cc5cccnc5)CC4)c3n2)cc1 [Compound 376, 1-(2-furylmethyl)-3-(4-{4-morpholin-4-yl-1-[1-(pyridin-3-ylmethyl)piperidin-4-yl]-1H-pyrazolo[3,4-d]pyrimidin-6-yl}phenyl)urea] | 0.359 |
| c1cncc(CN2CCC(n3ncc4c(N5CCOCC5)nc(-c5ccc6c(c5)CCN6)nc43)CC2)c1 [Compound 416, 6-(2,3-dihydro-1H-indol-5-yl)-4-morpholin-4-yl-1-[1-(pyridin-3-ylmethyl)piperidin-4-yl]-1H-pyrazolo[3,4-d]pyrimidine] | 1.49 |
| Nc1cc(F)c(-c2nc(N3CCOCC3)c3cnn(C4CCN(C(=O)c5cccnc5)CC4)c3n2)cc1F [Compound 464, 2,5-difluoro-4-{4-morpholin-4-yl-1-[1-(pyridin-3-ylcarbonyl)piperidin-4-yl]-1H-pyrazolo[3,4-d]pyrimidin-6-yl}aniline] | 3.62 |
| C[C@@H]1CN(c2nc(-c3cccc(O)c3)nc3c2cnn3-c2ccccc2)C[C@H](C)O1 [Compound 478, 3-{4-[(2R,6S)-2,6-dimethylmorpholin-4-yl]-1-phenyl-1H-pyrazolo[3,4-d]pyrimidin-6-yl}phenol] | 9.5 |
| CCNC(=O)Nc1ccc(-c2nc(N3CCOCC3)c3cnn(C4CCN(Cc5cccnc5)CC4)c3n2)cn1 [Compound 479, 1-ethyl-3-(5-{4-morpholin-4-yl-1-[1-(pyridin-3-ylmethyl)piperidin-4-yl]-1H-pyrazolo[3,4-d]pyrimidin-6-yl}pyridin-2-yl)urea] | 0.138 |
| NCCC(=O)Nc1ccc(-c2nc(N3CCOCC3)c3cn[nH]c3n2)cc1 [Compound 529, N-[4-(4-morpholin-4-yl-1H-pyrazolo[3,4-d]pyrimidin-6-yl)phenyl]-b-alaninamide] | 0.202 |
| Nc1ccc(-c2nc(N3CCOCC3)c3cn[nH]c3n2)cc1 [Compound 531, 4-(4-morpholin-4-yl-1H-pyrazolo[3,4-d]pyrimidin-6-yl)aniline] | 1.61 |
| CNC(=O)Nc1ccc(-c2nc(N3CCOCC3)c3cnn(-c4ccccc4)c3n2)cc1 [Compound 543, 1-methyl-3-[4-(4-morpholin-4-yl-1-phenyl-1H-pyrazolo[3,4-d]pyrimidin-6-yl)phenyl]urea] | 0.05 |
| O=C(NCCO)Nc1ccc(-c2nc(N3CCOCC3)c3cnn(C4CCN(C(=O)c5ccccc5)CC4)c3n2)cc1 [Compound 630, 1-{4-[1-(1-benzoylpiperidin-4-yl)-4-morpholin-4-yl-1H-pyrazolo[3,4-d]pyrimidin-6-yl]phenyl}-3-(2-hydroxyethyl)urea] | 0.229 |
| CNCCNC(=O)Nc1ccc(-c2nc(N3CCOCC3)c3cnn(C4CCN(C(=O)c5ccccc5)CC4)c3n2)cc1 [Compound 631, 1-{4-[1-(1-benzoylpiperidin-4-yl)-4-morpholin-4-yl-1H-pyrazolo[3,4-d]pyrimidin-6-yl]phenyl}-3-[2-(methylamino)ethyl]urea] | 0.048 |
| CNC(=O)Nc1ccc(-c2nc(N3CCOCC3)c3cnn(C4CCN(C)CC4)c3n2)cc1 [Compound 646, 1-methyl-3-{4-[1-(1-methylpiperidin-4-yl)-4-morpholin-4-yl-1H-pyrazolo[3,4-d]pyrimidin-6-yl]phenyl}urea] | 0.211 |
| CNC(=NC#N)Nc1ccc(-c2nc(N3CCOCC3)c3cnn(C4CCN(Cc5cccnc5)CC4)c3n2)cc1 [Compound 651, 2-cyano-1-methyl-3-(4-{4-morpholin-4-yl-1-[1-(pyridin-3-ylmethyl)piperidin-4-yl]-1H-pyrazolo[3,4-d]pyrimidin-6-yl}phenyl)guanidine] | 0.774 |
| CCNC(=NC#N)Nc1ccc(-c2nc(N3CCOCC3)c3cnn(C4CCN(Cc5cccnc5)CC4)c3n2)cc1 [Compound 652, 2-cyano-1-ethyl-3-(4-{4-morpholin-4-yl-1-[1-(pyridin-3-ylmethyl)piperidin-4-yl]-1H-pyrazolo[3,4-d]pyrimidin-6-yl}phenyl)guanidine] | 0.916 |

The remaining lines, values ahead:

| IC50 [µM] | Structure (SMILES) |
| --- | --- |
| 9.02 | COC(=O)Nc1cccc(-c2nc(N3CCOCC3)c3cnn(C4CCN(Cc5ccccc5)CC4)c3n2)c1 [Compound 227, methyl {3-[1-(1-benzylpiperidin-4-yl)-4-morpholin-4-yl-1H-pyrazolo[3,4-d]pyrimidin-6-yl]phenyl}carbamate] |
| 2 | COCOc1cncc(-c2nc(N3CCOCC3)c3cnn(C4CCN(Cc5ccccc5)CC4)c3n2)c1 [Compound 249, 1-(1-benzylpiperidin-4-yl)-6-[5-(methoxymethoxy)pyridin-3-yl]-4-morpholin-4-yl-1H-pyrazolo[3,4-d]pyrimidine] |
| 0.037 | Oc1cncc(-c2nc(N3CCOCC3)c3cnn(C4CCN(Cc5ccccc5)CC4)c3n2)c1 [Compound 250, 5-[1-(1-benzylpiperidin-4-yl)-4-morpholin-4-yl-1H-pyrazolo[3,4-d]pyrimidin-6-yl]pyridin-3-ol] |
| 4.11 | CCCOC(=O)Nc1ccc(-c2nc(N3CCOCC3)c3cnn(C4CCN(Cc5ccccc5)CC4)c3n2)cc1 [Compound 255, propyl {4-[1-(1-benzylpiperidin-4-yl)-4-morpholin-4-yl-1H-pyrazolo[3,4-d]pyrimidin-6-yl]phenyl}carbamate] |
| 0.533 | O=C(NCc1ccccc1)Nc1ccc(-c2nc(N3CCOCC3)c3cnn(C4CCN(Cc5ccccc5)CC4)c3n2)cc1 [Compound 258, 1-benzyl-3-{4-[1-(1-benzylpiperidin-4-yl)-4-morpholin-4-yl-1H-pyrazolo[3,4-d]pyrimidin-6-yl]phenyl}urea] |
| 1.9 | O=C(Nc1ccc(-c2nc(N3CCOCC3)c3cnn(C4CCN(Cc5ccccc5)CC4)c3n2)cc1)C(F)(F)F [Compound 299, N-{4-[1-(1-benzylpiperidin-4-yl)-4-morpholin-4-yl-1H-pyrazolo[3,4-d]pyrimidin-6-yl]phenyl}-2,2,2-trifluoroacetamide] |
| 1.26 | O=C(O)Cc1ccc(-c2nc(N3CCOCC3)c3cnn(C4CCN(Cc5ccccc5)CC4)c3n2)cc1 [Compound 353, {4-[1-(1-benzylpiperidin-4-yl)-4-morpholin-4-yl-1H-pyrazolo[3,4-d]pyrimidin-6-yl]phenyl}acetic acid] |
| 0.466 | c1ccc(CN2CCC(n3ncc4c(N5CCOCC5)nc(-c5ccc6ncccc6c5)nc43)CC2)cc1 [Compound 369, 6-[1-(1-benzylpiperidin-4-yl)-4-morpholin-4-yl-1H-pyrazolo[3,4-d]pyrimidin-6-yl]quinoline] |
| 3.13 | NC(=O)Cc1ccc(-c2nc(N3CCOCC3)c3cnn(C4CCN(Cc5ccccc5)CC4)c3n2)cc1 [Compound 370, 2-{4-[1-(1-benzylpiperidin-4-yl)-4-morpholin-4-yl-1H-pyrazolo[3,4-d]pyrimidin-6-yl]phenyl}acetamide] |
| 1.58 | CCOC(=O)Nc1ccc(-c2nc(N3CCOCC3)c3cnn(C4CCN(C(=O)c5ccccc5)CC4)c3n2)cc1 [Compound 628, ethyl {4-[1-(1-benzoylpiperidin-4-yl)-4-morpholin-4-yl-1H-pyrazolo[3,4-d]pyrimidin-6-yl]phenyl}carbamate] |
| 0.018 | CNC(=O)Nc1ccc(-c2nc(N3CCOCC3)c3cnn(C4CCN(Cc5ccc(Cl)cc5)CC4)c3n2)cc1 [Compound 639, 1-(4-{1-[1-(4-chlorobenzyl)piperidin-4-yl]-4-morpholin-4-yl-1H-pyrazolo[3,4-d]pyrimidin-6-yl}phenyl)-3-methylurea] |
| 0.042 | CNC(=O)Nc1ccc(-c2nc(N3CCOCC3)c3cnn(C4CCN(Cc5cccc(Cl)c5)CC4)c3n2)cc1 [Compound 640, 1-(4-{1-[1-(3-chlorobenzyl)piperidin-4-yl]-4-morpholin-4-yl-1H-pyrazolo[3,4-d]pyrimidin-6-yl}phenyl)-3-methylurea] |
| 0.057 | CNC(=O)Nc1ccc(-c2nc(N3CCOCC3)c3cnn(C4CCN(Cc5ccc(OC)c(O)c5)CC4)c3n2)cc1 [Compound 643, 1-(4-{1-[1-(3-hydroxy-4-methoxybenzyl)piperidin-4-yl]-4-morpholin-4-yl-1H-pyrazolo[3,4-d]pyrimidin-6-yl}phenyl)-3-methylurea] |
| 0.043 | CNC(=O)Nc1ccc(-c2nc(N3CCOCC3)c3cnn(C4CCN(Cc5cccc(OC)c5)CC4)c3n2)cc1 [Compound 645, 1-(4-{1-[1-(3-methoxybenzyl)piperidin-4-yl]-4-morpholin-4-yl-1H-pyrazolo[3,4-d]pyrimidin-6-yl}phenyl)-3-methylurea] |
| 0.063 | CNC(=O)Nc1ccc(-c2nc(N3CCOCC3)c3cnn(C4CCN(Cc5ccco5)CC4)c3n2)cc1 [Compound 647, 1-(4-{1-[1-(2-furylmethyl)piperidin-4-yl]-4-morpholin-4-yl-1H-pyrazolo[3,4-d]pyrimidin-6-yl}phenyl)-3-methylurea] |
